# From patent US10946059B2, “Formulation containing an extract of Alpinia galanga, a process for the preparation thereof, and uses thereof” (priority 2017, dated 2021)
# Experiments:
# Type in all cases: in vivo, human
# [1] = test system: subjects (male and female) habituated to average caffeine consumption; experiment: Attention Network Test (CRSD-ANT), Example 1: mean response time, alertness, orientation, executive attention; settings: day 7 after IP, compared to placebo
# Procedure: Only right-handed subjects were included in the study to avoid spatial bias. […] The subjects had to refrain from smoking 24 h before study onset and refrain from alcohol intake throughout the study. Subjects with a history or presence of clinically important cardiac, renal, hepatic, endocrine (including diabetes mellitus), pulmonary, biliary, gastrointestinal, pancreatic, or neurological disorders and uncontrolled hypertension were excluded from the study. For each subject, the study was terminated after data collection on the assessment day. […] The IPs included Cymbopogon flexuosus (LG), water-soluble and water-insoluble extracts of Alpinia galanga (AG1 and AG2 respectively), and water-soluble and water-insoluble extracts of Glycyrrhiza glabra (GG1 and GG2 respectively). All interventions were administered to subjects in the form of identical capsules that had been packed in duly labeled HDPE bottles. […] The subjects were allowed to drink water as desired and allowed to relax in an isolated room at a comfortable temperature and were free to use a computer, listen to music, or read magazines during the clinic stay period. […] To ensure treatment compliance, product accountability was monitored by a clinical research coordinator on the following visit. […] Effects of IPs on different aspects of the attention network, such as alertness, orientation, and executive control, were also assessed by ANT. […]
# healthy young volunteers [2] = experiment: Psychomotor Vigilance Task (PVT), sustained attention, Example 2; settings: mean ± SD
# From the text: Subjects were derived through multiple sources including a healthy volunteer's database and a consumer group's survey agency. The subjects were then screened. […] The subjects with body mass index (BMI) between 18.50 and 25.00 kg/m2 and a resting blood pressure≤140/90 mm Hg were considered eligible. To avoid subjects with psychotic disorders such as anxiety, depression, ADD or ADHD, subjects with Generalized Anxiety Disorder Screening (GAD-7) score≥7 & Patient Health Questionnaire-9 (PHQ-9) score≥14 were excluded from the study. […] Concomitant therapy was strictly prohibited in order to exclude any significant effect on the results. All the subjects were instructed thoroughly on the investigation procedures. Subjects were randomized and allocated to interventional products in each visit, divided in four treatment arms based on randomization chart [SPSS version 10.0, IBM] and similar trend was followed for subsequent visits. […] All these treatments were administered to subjects in the form of capsules which were identical in appearance and packed in duly labeled HDPE bottles. The blinding codes were secured at the site in tamper-evident sealed envelopes with no access to the investigators. Thus, the double blind nature of the data were ensured and strictly followed. […] Composition details of all these IPs are: Subjects reported to the clinic during the morning hours and testing began at early time of day (8:00-9:00 a.m.) for each visit to avoid influence of daily challenges (related to mental and physical stress) on outcomes and the time of day was matched for all three visits to reduce variability in response due to diurnal pattern. […] Subjects were also instructed to obtain sufficient sleep during the night prior to testing which was confirmed using sleep diary. Upon arrival at clinic, subjects were asked to rest quietly for 15-20 minutes after which vital parameters were measured and a standardized meal of approximately 200 calories was provided to control variations from possible digestion confounds. […] Post ingestion of IP, data were collected at 1, 3, and 5 hours. No other food or calorie-containing beverages were provided. Subjects were allowed to drink water as desired. Subjects were allowed to relax in an isolated room at a comfortable temperature and free to use the computer, listen to music or read magazines during the clinic stay period. […] To ensure treatment compliance, product accountability was monitored by clinical research coordinator on the following visit. […] The mean MRT was calculated in milliseconds, which is the time a subject took to press the response button as soon as each stimulus appeared. […]
# healthy young volunteers [3] = experiment: Attention network test (ANT 1.3.0), mental alertness, Example 2
# From the text: The subjects were then screened. […] The subjects with body mass index (BMI) between 18.50 and 25.00 kg/m2 and a resting blood pressure≤140/90 mm Hg were considered eligible. To avoid subjects with psychotic disorders such as anxiety, depression, ADD or ADHD, subjects with Generalized Anxiety Disorder Screening (GAD-7) score≥7 & Patient Health Questionnaire-9 (PHQ-9) score≥14 were excluded from the study. Subjects with alertness score (Jin Fan's Attention Network Test, version 1.3.0) of 50±20 milliseconds at screening visit were considered eligible. Concomitant therapy was strictly prohibited in order to exclude any significant effect on the results. All the subjects were instructed thoroughly on the investigation procedures.
# Subjects reported to the clinic during the morning hours and testing began at early time of day (8:00-9:00 a.m.) for each visit to avoid influence of daily challenges (related to mental and physical stress) on outcomes and the time of day was matched for all three visits to reduce variability in response due to diurnal pattern. […] Subjects were also instructed to obtain sufficient sleep during the night prior to testing which was confirmed using sleep diary. Upon arrival at clinic, subjects were asked to rest quietly for 15-20 minutes after which vital parameters were measured and a standardized meal of approximately 200 calories was provided to control variations from possible digestion confounds. Baseline data were collected 30 minutes post breakfast followed by administration of IP, wherein one dose of the product was administered to subject by trial coordinator at investigational site.
# Post ingestion of IP, data were collected at 1, 3, and 5 hours. No other food or calorie-containing beverages were provided. Subjects were allowed to drink water as desired. Subjects were allowed to relax in an isolated room at a comfortable temperature and free to use the computer, listen to music or read magazines during the clinic stay period. To analyze the effect on IP on sleep architecture, a second dose was supplied in a labeled bottle to be taken before dinner in the night of the same day and subjects were asked to record all the details pertaining to sleep quality and duration in sleep diary. To ensure treatment compliance, product accountability was monitored by clinical research coordinator on the following visit.
# The primary efficacy variable was mental alertness. Alertness is defined as achieving and maintaining a state of high sensitivity to incoming stimuli. The Attention network test (ANT) was implemented for this purpose as it provides a behavioral measure of the efficiency of the different components of attention networks separately within a single task. The downloaded JAVA version of ANT 1.3.0 (Fan et al., 2002, 2005) was used to conduct the trial. The subject was seated in a silent and secluded room. All external distractions were avoided and subjects were asked to give complete attention to the task at hand. Mental alertness in ANT was calculated in terms of difference score quantified in milliseconds and calculated by subtracting average double-cue RTs from the no-cue RTs. […]
compound,measurement,setting,value
"Cn1c(=O)c2c(ncn2C)n(C)c1=O [Caffeine, caffeine]",alertness,[1],decrease in alertness compared to the placebo group
same,PVT-Mean Response Time (Sustained Attention),healthy young volunteers [2]; 1H: value at 1 hour,290.1 ± 51.6 ms
same,PVT-Mean Response Time (Sustained Attention),healthy young volunteers [2]; 3H: value at 3 hours,287.6 ± 43.1 ms
same,PVT-Mean Response Time (Sustained Attention),healthy young volunteers [2]; 5H: value at 5 hours,296.9 ± 51.5 ms
same,PVT-Mean Response Time (Sustained Attention),healthy young volunteers [2]; BL: baseline value,310.4 ± 103.3 ms
same,ANT-Alertness (Mental Alertness) score,"healthy young volunteers [3]; 1H: value at 1 hour, PP population, mean ± SD",57.0 ± 18.1 ms
same,increase in alertness score from baseline,healthy young volunteers [3]; at one hour,8.97 ± 18.20 ms
same,decrease in alertness score from baseline,healthy young volunteers [3]; at three hours,1.23 ± 18.60 ms
same,subjects that would exhibit higher alertness than the subjects in the placebo group,healthy young volunteers [3]; from Cohen's d,47%
same,"effect size in alertness score, Cohen's d",healthy young volunteers [3]; in comparison with placebo,0.08
